In US10222370B2, “Screening assay for choice of prebiotic to prevent/treat gastrointestinal and systemic diseases” (Rush University Medical Center, priority 2014, dated 2019):
“Also recorded” adds a separate entry of the source.

Key:
Type in all cases: cell-based, human
[1] = test system: T84 monolayers co-cultured with CD3/28-activated PBMC; experiment: T84/PBMC co-culture, barrier integrity by transepithelial electrical resistance (TER); settings: for TER of T84 monolayers: apical exposure, 24 h and 48 h, vs medium control; for PBMC-induced disruption of intestinal epithelial barrier integrity (injurious effects of activated PBMC): PBMC from food allergy patients, agonist on apical side of T84 cells, FIG. 3
Protocol: (§1) The T84 cells are grown in DMEM/F-12 (1:1) supplemented with GlutaMAX®, 10% fetal bovine serum and […] penicillin/streptomycin. (T84 cells (human colorectal carcinoma cell line, ATCC® CCL-248™, Manassas, Va., USA). T84 cells were seeded in 12-well transwell insert filters (Coming Inc., NY, USA) and cultured in T84 cell medium for 3-4 weeks till co-culture with PBMC. Transepithelial electrical resistance (TER) was measured during culture, which generally increases to >1500 Ω×cm^2 and becomes stable after 3-4 weeks of culture. When TER was ≥2000 Ω×cm^2, T84 monolayers 14 were co-cultured with 1.5×10^6 PBMC 16 in the basolateral chamber.
(§2) The PBMC 16 for use in the co-cultures are isolated from 20 mL fresh blood from healthy controls (n=6) and subjects with food allergy (n=8) (Table 1). The average age of healthy controls was 36 (range 24-54) vs. 51 (range 26-74) for food allergic subjects (P>0.05). PBMC were isolated by density gradient centrifugation using lymphocyte separation medium according to manufacturer's protocol (Cellgro, Mediatec, Inc., Manassas, Va., USA). PBMC were collected in RPMI1640 supplemented with L-glutamine (Gibco), 2.5% fetal bovine serum, 1% penicillin/streptomycin and 1% sodium pyruvate (Sigma, St. Louis, Mo., USA) (PBMC medium) at 1×10^6 cell/mL.
(§3) T84/PBMC co-cultures were maintained in PBMC medium. PBMC were stimulated using CD3 and CD28 antibodies (clone OKT3 and CD28.2, 0.2 μg/mL; eBioscience, San Diego, Calif., USA) and simultaneously IEC were stimulated apically with Pam3CSK4, LPS or type C CpG oligonucleotide M362 (Invivogen, San Diego, Calif., USA) as previously described. Cultures were maintained at 37° C./5% CO2 for indicated time points.
(§4) The barrier integrity of T84 monolayers was assessed by measuring the TER and paracellular permeability to 4 kDa FITC-dextran. In short, TER was measured using a dual electrode system designed for cell culture insert analysis (EVOM; World Precision Instruments, Sarasota, Fla.) prior to co-culture and at indicated time points during co-culture. Data is reported as percentage of the initial TER value measured before co-culture. For assessment of permeability, T84 monolayers were separated from PBMC and cultured in PBMC medium for 1 h. The monolayers were then apically exposed to 1 mg/mL 4 kDa FITC-dextran (Sigma) and basolateral supernatants were collected after 60 min. FITC-dextran was measured at excitation wavelength 485 nm and emission wavelength 520 nm. The 4 kDa FITC-dextran flux was expressed as pmol/(h×cm^2).
In some experiments, PBMC are stimulated using antibodies against CD3 and CD28 and T84 cell monolayers were simultaneously exposed to synthetic TLR ligands or fermentation product 12 (co-culture of stool samples without or with different prebiotics). SCFA content (acetate, propionate and butyrate) in the fermentation products (“Fermenta”) 12 was analyzed by HPLC. TER was measured at t=0 h, t=4 h, t=18 h and t=24 h to monitor changes in the barrier integrity of the T84 monolayers. Non-limiting example of prebiotics include commercially available inulin and fructose oligosaccharides (FOS) that promote production of Butyrate by intestinal bacteria, galactose oligosaccharides (GOS) that promote growth of bifidobacteria in the intestine or prebiotics like resistant starch, corn arbionoxylan that promotes propionate. Other prebiotics may also be used.

PBMC = experiment: Cytokine production by CD3/28-activated PBMC in absence of T84 cells (ELISA); settings: for IFN-γ / IL-6 / IL-8 / IL-10 / IL-13 / TNF-α / IFN-γ/IL-13 ratio: PBMC in absence of T84 cells, 24 h; for IFN-γ / IL-6 / IL-8 / IL-10 / IL-13 / TNF-α: mean ± SEM; for IL-10/IL-13 ratio: absence of T84 cells
Protocol: as §2, §3
(§5) Cytokine levels were measured by ELISA. IL-6, IL-8, IL-10, IL-13, IFN-γ and TNF-α were measured using the Ready-Set-Go!® ELISA kit from eBioscience according to manufacturer's protocol (eBioscience, Inc., San Diego, Calif., USA).
(§6) To evaluate whether epithelial TLR ligation modulates cytokine production by the PBMC, basolateral supernatants were collected 24 h after co-culture. Exposure of CD3/28-activated PBMC in the absence of IEC to TLR ligands served as a control to evaluate the contribution of IEC in modulating the cytokine production by PBMC. First we evaluated the production of IFN-γ and IL-13 as a reflection of a Th1 and Th2 type effector response (Table 3). No significant changes in the production of IFN-γ or IL-13 were observed, though IFN-γ production by the PBMC from food allergic subjects tended to be lower in T84/PBMC co-cultures (P=0.093). […] This was not observed when PBMC were stimulated with CpG DNA in absence of T84 cells (FIG. 7B).

T84/PBMC co-cultures = experiment: Cytokine production in T84/PBMC co-cultures with apical TLR ligands (ELISA); settings: for IL-6 / IFN-γ / IL-8 / IL-10 / IL-13 / TNF-α: T84/PBMC, mean ± SEM; for IL-6 / IFN-γ / IL-8 / IL-10 / IL-13 / TNF-α / IFN-γ/IL-13 ratio: 24 h; for IL-10/IL-13 ratio / IFN-γ/IL-13 ratio / IL-10/IFN-γ: T84/PBMC co-cultures; for IL-10/IL-13 ratio / IFN-γ/IL-13 ratio: vs medium; for IL-10/IFN-γ: apical exposure
Protocol: as §1, §2, §3, §5, §6

[2] = test system: T84 monolayers co-cultured with CD3/28-activated PBMC; experiment: T84/PBMC co-culture, paracellular permeability to 4 kDa FITC-dextran; settings: 48 h co-culture, vs medium control
Protocol: as §1, §2
T84/PBMC co-cultures were maintained in PBMC medium. […]
as §4, with “For assessment of permeability, T84 monolayers were separated from PBMC and cultured in PBMC medium for 1 h. The monolayers were then apically exposed to 1 mg/mL 4 kDa FITC-dextran (Sigma) and basolateral supernatants were collected after 60 min.” left out

[3] = PBMC from food allergic subjects

Substance: Pam3CSK4
- TER of T84 monolayers [1, 3]: did not affect
- TER of T84 monolayers ([1]; PBMC from healthy controls): did not affect
- IFN-γ (PBMC; FA): 2824 ± 1163 pg/mL
- IL-6 (PBMC; FA): 8073 ± 2055 pg/mL
- IL-8 (PBMC; FA): 32940 ± 4869 pg/mL
- IL-10 (PBMC; FA): 422.8 ± 98.6 pg/mL
- IL-13 (PBMC; FA): 59.4 ± 15.2 pg/mL
- TNF-α (PBMC; FA): 979.1 ± 244^ pg/mL
- IFN-γ (PBMC; HC): 5663 ± 1768 pg/mL
- IL-6 (PBMC; HC): 9472 ± 2153 pg/mL
- IL-8 (PBMC; HC): 43737 ± 2856 pg/mL
- IL-10 (PBMC; HC): 254.7 ± 135.4 pg/mL
- IL-13 (PBMC; HC): 59.2 ± 17.0 pg/mL
- TNF-α (PBMC; HC): 2206 ± 1155 pg/mL
- IL-6 (T84/PBMC co-cultures; FA (food allergy) PBMC): 5968 ± 1324 pg/mL
- IFN-γ (T84/PBMC co-cultures; FA PBMC): 6533 ± 2125 pg/mL
- IL-8 (T84/PBMC co-cultures; FA PBMC): 16854 ± 4954 pg/mL
- IL-10 (T84/PBMC co-cultures; FA PBMC): 853.3 ± 212.9 pg/mL
- IL-13 (T84/PBMC co-cultures; FA PBMC): 40.8 ± 12.1 pg/mL
- TNF-α (T84/PBMC co-cultures; FA PBMC): 2251 ± 534 pg/mL
- IL-6 (T84/PBMC co-cultures; HC (healthy control) PBMC): 7209 ± 1531 pg/mL
- IFN-γ (T84/PBMC co-cultures; HC PBMC): 8614 ± 2455 pg/mL
- IL-8 (T84/PBMC co-cultures; HC PBMC): 23052 ± 5527 pg/mL
- IL-10 (T84/PBMC co-cultures; HC PBMC): 581.1 ± 110.7 pg/mL
- IL-13 (T84/PBMC co-cultures; HC PBMC): 37.8 ± 9.2 pg/mL
- TNF-α (T84/PBMC co-cultures; HC PBMC): 3073 ± 509 pg/mL
- permeability of T84 monolayers to 4 kDa FITC-dextran ([2]; PBMC from healthy controls): increased the permeability

Substance: type C CpG oligonucleotide M362 [CpG DNA]
- TER of T84 monolayers [1, 3]: prevented PBMC-induced barrier disruption; also recorded: increased
- PBMC-induced disruption of intestinal epithelial barrier integrity (injurious effects of activated PBMC) ([1]; listed as TLR9 agonist): prevented
- PBMC-induced disruption of intestinal epithelial barrier integrity (injurious effects of activated PBMC) ([1]; listed as TLR-9 agonist): significantly blunted
- TER of T84 monolayers ([1]; PBMC from healthy controls): prevented PBMC-induced barrier disruption; also recorded: increased
- IFN-γ (PBMC; FA): 3945 ± 1543 pg/mL
- IL-6 (PBMC; FA): 5940 ± 2450 pg/mL
- IL-8 (PBMC; FA): 25420 ± 6779 pg/mL
- IL-10 (PBMC; FA): 477.3 ± 157.7 pg/mL
- IL-13 (PBMC; FA): 39.9 ± 12.8 pg/mL
- TNF-α (PBMC; FA): 1199 ± 437 pg/mL
- IFN-γ (PBMC; HC): 2394 ± 966 pg/mL
- IL-6 (PBMC; HC): 2564 ± 824 pg/mL
- IL-8 (PBMC; HC): 19912 ± 2430 pg/mL
- IL-10 (PBMC; HC): 391.9 ± 149.3 pg/mL
- IL-13 (PBMC; HC): 19.5 ± 3.8 pg/mL
- TNF-α (PBMC; HC): 1024 ± 213 pg/mL
- IFN-γ/IL-13 ratio (PBMC; food allergic subjects): not observed
- IFN-γ/IL-13 ratio (PBMC; healthy controls): not observed
- IL-10/IL-13 ratio (PBMC; [3]): did not affect
- IL-10/IL-13 ratio (PBMC; PBMC from healthy controls): enhanced
- production of IL-6, IL8 and TNF-α (PBMC; direct stimulation of PBMC from food allergic subjects, in words): did not suppress
- pro-inflammatory cytokine production (PBMC; direct stimulation of PBMC from healthy controls, in words): reduced
- production of IL-6, IL-8 and TNF-α by PBMC (T84/PBMC co-cultures; T84/PBMC co-culture, PBMC from both healthy controls and food allergic subjects, in words): suppressed
- IL-10/IL-13 ratio (T84/PBMC co-cultures; PBMC from food allergic patients): significantly increased
- IFN-γ/IL-13 ratio (T84/PBMC co-cultures; food allergic subjects): enhanced; also recorded: increased
- IL-10/IFN-γ (T84/PBMC co-cultures; food allergic subjects): 0.19±0.06
- IFN-γ/IL-13 ratio (T84/PBMC co-cultures; healthy controls): enhanced; also recorded: increased
- IL-10/IFN-γ (T84/PBMC co-cultures; healthy controls): 0.12±0.06
- IL-10/IL-13 ratio (T84/PBMC co-cultures; healthy donor PBMC): tended to increase
- IL-6 (T84/PBMC co-cultures; FA (food allergy) PBMC): 6400 ± 1671 pg/mL
- IFN-γ (T84/PBMC co-cultures; FA PBMC): 7040 ± 2454 pg/mL
- IL-8 (T84/PBMC co-cultures; FA PBMC): 15733 ± 4509 pg/mL
- IL-10 (T84/PBMC co-cultures; FA PBMC): 834 ± 233.6 pg/mL
- IL-13 (T84/PBMC co-cultures; FA PBMC): 35.9 ± 10.5 pg/mL
- TNF-α (T84/PBMC co-cultures; FA PBMC): 2092 ± 493 pg/mL
- IL-6 (T84/PBMC co-cultures; HC (healthy control) PBMC): 7291 ± 1376 pg/mL
- IFN-γ (T84/PBMC co-cultures; HC PBMC): 10731 ± 3289 pg/mL
- IL-8 (T84/PBMC co-cultures; HC PBMC): 20758 ± 5247 pg/mL
- IL-10 (T84/PBMC co-cultures; HC PBMC): 652.8 ± 105.5 pg/mL
- IL-13 (T84/PBMC co-cultures; HC PBMC): 27.5 ± 7.5 pg/mL
- TNF-α (T84/PBMC co-cultures; HC PBMC): 2531 ± 552 pg/mL
- Th1/Th2 balance of the effector immune response (T84/PBMC co-cultures; apical exposure of T84 monolayers, FIG. 4, listed as TLR9 agonist): shifts the balance of the effector immune response away from the allergy-associated Th2 response; also recorded: reversed the Th1/Th2 balance away from the allergic TH2 phenotype
- permeability of T84 monolayers to 4 kDa FITC-dextran [2, 3]: reduced epithelial permeability
